Broadly, the IC50 is the midpoint of a concentration-inhibition curve.

Where only a bound is given, the exact number is not on record here.

For series [1], the system named is HCV replicon cells Huh 9B. Description: HCV replicon luciferase assay. The class given is cell-based, hepatitis C virus. Conditions: Huh 9B replicon cells, 72 h incubation, luciferase readout. The protocol: (§1) HCV replicon cells Huh 9B (ReBlikon), containing the firefly luciferase—ubiquitin—neomycin phosphotransferase fusion protein and EMCV-IRES driven HCV polyprotein with cell culture adaptive mutations.
(§2) Cells were cultured at 37° C. in a 5% CO2 environment and split twice a week on seeding at 2×10E6 cells/flask on day 1 and 1×10E6 3 days later. Some 0.25 mg/ml G418 was added to the culture medium (125 ul per 25 ml) but not the assay medium.
(§3) The culture medium consisted of DMEM with […] glucose and glutamax (Gibco 61965-026) supplemented with 1× non-essential amino acids, penicillin (100 IU/ml)/streptomycin (100 μg/ml), FCS (10%, 50 ml) and 1 mg/ml G418 (Invitrogen cat no 10131-027) & 10% foetal calf serum.
(§4) A flask of cells was trypsinised and a cell count carried out. Cells were diluted to 100,000 cells/ml and 100 μl of this used to seed one opaque white 96-well plate (for the replicon assay) and one flat-bottomed clear plate (for the tox assay) for every seven compounds to be tested for IC50. Wells G12 and H12 were left empty in the clear plate as the blank. Plates were then incubated at 37° C. in a 5% CO2 environment for 24 h.
(§5) On the following day compound dilutions are made up in medium at twice their desired final concentration in a clear round bottomed plate. All dilutions have a final DMSO concentration of 1%.
(§6) Once the dilution plate had been made up, controls and compounds were transferred to the assay plate (containing the cells) at 100 μl /well in duplicate plates.
(§7) Exception: in the white (replicon) plate, no compound was added to wells A1 and A2 and 100 μl of 1% DMSO was added to these instead. In the clear (Tox) plate, wells E12 & F12 only contained the DMSO control. Plates were then incubated at 37° C. with 5% CO2 for 72 h.
At the end of the incubation time, the cells in the white plate were harvested by washing with 200 μl/well of warn (37° C.) PBS and lysed with 20 μl cell culture lysis buffer (Promega). After 5 min incubation @ RT, luciferin solution was added to the luciferase assay buffer (LARB at 200 μl per 10 ml LARB. The M injector of the microplate luminometer (Lmax, Molecular Devices) was primed with […] injections. Plate were inserted into the luminometer and 100 μl luciferase assay reagent was added by the injector on the luminometer. The signal was measured using a 1 second delay followed by a 4 second measurement programme. The IC50, the concentration of the drug required for reducing the replicon level by 50% in relation to the untreated cell control value, can be calculated from the plot of the percentage reduction of the luciferase activity vs. drug concentration.
For orientation: In antiviral work, replicon cells carry a viral genome segment that copies itself.

The test system of series [2] is HCV replicon cells Huh 9B. Type of series: cell-based. Conditions: Huh 9B replicon cells, 72 h incubation, methylene blue absorbance at 620 nm. As for the experimental part: as §1, §2, §3, §4, §5, §6, §7
The clear plate was stained with 100 μl 0.5% methylene blue in 50% ethanol at RT for 1 h, followed by solvation of the absorbed methylene blue in 100 μl per well of 1% lauroylsarcosine. Absorbance of the plate was measured on a microplate spectrophotometer (Molecular Devices) and the absorbance for each concentration of compound expressed as a proportion of the relative DMSO control. The TD50, the concentration of drug required to reduce the total cell area by 50% relative to the DMSO controls can be calculated by plotting the absorbance at 620 nm vs drug concentration.

For `CCOc1ccc(-c2ccc3ncnc(Nc4ccc(N5CCOCC5)cc4)c3c2)cc1OCC` [Example 4], the IC50 in series [1] is < 1000 nM. In addition, in series [2], the “Replicon TD5O” value is “** (>10 uM = **)”.

In the case of `c1nc(Nc2ccc(N3CCOCC3)cc2)c2cc(-c3ccc(OCCN4CCOCC4)cc3)ccc2n1` [Example 1, {6-[4-(2-Morpholin-4-yl-ethoxy)-phenyl]-quinazolin-4-yl}-(4-morpholin-4-yl-phenyl)-amine], the concentration for half-maximal inhibition (IC50) in series [1] (Hepatitis C virus) is < 5000 nM. Also, in series [2], the “Replicon TD5O” value was “*** (>25 uM = ***)”.

As to `Fc1cc(-c2ccc3ncnc(Nc4ccc(N5CCOCC5)cc4)c3c2)ccc1OCCN1CCOCC1` [Example 5, {6-[3-Fluoro-4-(2-morpholin-4-yl-ethoxy)-phenyl]-quinazoline-4-yl}-(4-morpholin-4-yl-phenyl)-amine], the IC50 in series [1] (Hepatitis C virus) was < 1000 nM. Also, the “Replicon TD5O” value in series [2] was “*** (>25 uM = ***)”.

For `COc1ccc(-c2ccc3ncnc(Nc4ccc(N5CCOCC5)cc4)c3c2)cc1OC` [Example 3, [6-(3,4-Dimethoxy-phenyl)-quinazolin-4-yl]-(4-morpholin-4-yl-phenyl)-amine], the concentration for half-maximal inhibition (IC50) in series [1] (Hepatitis C virus) is < 1000 nM. For the same compound, the “Replicon TD5O” value in series [2] is “** (>10 uM = **)”.

As to `c1nc(Nc2ccc(N3CCOCC3)cc2)c2cc(-c3ccc(OCCCN4CCOCC4)cc3)ccc2n1` [Example 2, (4-Morpholin-4-yl-phenyl)-{6-[4-(3-morpholin-4-yl-propoxy)-phenyl]-quinazolin-4-yl}-amine], in series [1] (Hepatitis C virus), the IC50 was < 1000 nM. Moreover, the “Replicon TD5O” value in series [2] was “** (>10 uM = **)”.

Values taken from US20080267914A1, “Chemical Compounds” (priority 2005, published 2008).
